According to US7737166B2, “Antifungal bicyclic hetero ring compounds” (Daiichi Sankyo Company, Limited, priority 2005, dated 2010):
Values after ≈ are worked out from the molar mass of the structure shown.

Key:
[1] = system: C. albicans ATCC MYA-573; experiment: Antifungal activity (GI80), growth inhibition in YPD20 medium by absorbance at 600 nm; type: cell-based; settings: Candida albicans, minimum concentration for at least 80% cell growth inhibition, 37° C., absorbance 600 nm, read-out: GI80 (μg/ml) C. albicans ATCC MYA-573
Outline: (§1)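 Cells grown overnight on Sabouraud dextrose agar at 30° C were inoculated at 5×10^3 cells/ml into YPD20-type medium with 2-fold DMSO compound dilutions. Aerobic static culture at 37° C for […], then A600 read; GI80 is the lowest concentration giving ≥80% growth inhibition versus compound-free wells.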

[2] = system: C. albicans ATCC90028; experiment: as above; type: cell-based; settings: Candida albicans, ATCC90028, minimum concentration for at least 80% cell growth inhibition, 37° C., absorbance 600 nm, read-out: GI80 (μg/ml) C. albicans ATCC90028
Outline: as §1

[3] = system: C. glabrata ATCC48435; experiment: as above; type: cell-based; settings: Nakaseomyces glabratus, ATCC48435, minimum concentration for at least 80% cell growth inhibition, 37° C., absorbance 600 nm, read-out: GI80 (μg/ml) C. glabrata ATCC48435
Outline: as §1

| melting point [°C] | Compound | IC80 [1] [µg/mL] | IC80 [2] [µg/mL] | IC80 [3] [µg/mL] |
| --- | --- | --- | --- | --- |
| 48 to 51 | Cc1c(-c2ccccc2)c(N2CC[C@H](N(C)C)C2)c2oc(N3CC(CO)C3)nc2c1C#N [Example 98, 7-[(3S)-3-(Dimethylamino)pyrrolidin-1-yl]-2-[3-(hydroxymethyl)azetidin-1-yl]-5-methyl-6-phenyl-1,3-benzoxazole-4-carbonitrile] | 0.5 (≈ 1.16 µM) | 0.5 (≈ 1.16 µM) | 0.125 (≈ 0.29 µM) |
| 191 to 194 | Cc1c(-c2ccccc2N)c(N2CC[C@H](N(C)C)C2)c2oc(C3CC3)nc2c1C#N [Example 144-13, 6-(2-Aminophenyl)-2-cyclopropyl-7-[(3S)-3-(dimethylamino)pyrrolidin-1-yl]-5-methyl-1,3-benzoxazole-4-carbonitrile] | 1 (≈ 2.49 µM) | 1 (≈ 2.49 µM) | 0.5 (≈ 1.25 µM) |
| 130 to 132 | Cc1c(-c2ccccc2)c(N2CC[C@H](N(C)C)C2)c2oc(C(C)(C)F)nc2c1C#N [Example 148, 7-[(3S)-3-(Dimethylamino)pyrrolidin-1-yl]-2-(1-fluoro-1-methylethyl)-5-methyl-6-phenyl-1,3-benzoxazole-4-carbonitrile] | 0.063 (≈ 0.155 µM) | 0.032 (≈ 0.0787 µM) | < 0.016 |
| 172 to 174 | CN[C@@]1(C)CCN(c2c(-c3ccccc3)c(C)c(C#N)c3nc(C(=O)N(C)C)oc23)C1 [Example 159, 4-Cyano-N,N,5-trimethyl-7-[(3S)-3-methyl-3-(methylamino)pyrrolidin-1-yl]-6-phenyl-1,3-benzoxazole-2-carboxamide] | 0.063 (≈ 0.151 µM) | 0.063 (≈ 0.151 µM) | < 0.016 |
